Measurements published in US5891882A, “Benzopyranopyrrole and benzopyranopyridine α-1 adenergic compounds” (priority 1997, dated 1999).
Counter-ions that a name gives are not always drawn. Like-named read-outs stand apart in the source and are kept apart here.

Columns and labels:
[1] = target: T1, α-1d adrenoreceptor (rat) (Rattus norvegicus, UniProt P23944); assay: In vitro [3H]-prazosin radioligand binding, cloned α-1d adrenoreceptor expressed in LTK cells
T1 construct: expressed in transfected cells; cDNA from TULCO; membranes
T1 sequence (P23944 1-561): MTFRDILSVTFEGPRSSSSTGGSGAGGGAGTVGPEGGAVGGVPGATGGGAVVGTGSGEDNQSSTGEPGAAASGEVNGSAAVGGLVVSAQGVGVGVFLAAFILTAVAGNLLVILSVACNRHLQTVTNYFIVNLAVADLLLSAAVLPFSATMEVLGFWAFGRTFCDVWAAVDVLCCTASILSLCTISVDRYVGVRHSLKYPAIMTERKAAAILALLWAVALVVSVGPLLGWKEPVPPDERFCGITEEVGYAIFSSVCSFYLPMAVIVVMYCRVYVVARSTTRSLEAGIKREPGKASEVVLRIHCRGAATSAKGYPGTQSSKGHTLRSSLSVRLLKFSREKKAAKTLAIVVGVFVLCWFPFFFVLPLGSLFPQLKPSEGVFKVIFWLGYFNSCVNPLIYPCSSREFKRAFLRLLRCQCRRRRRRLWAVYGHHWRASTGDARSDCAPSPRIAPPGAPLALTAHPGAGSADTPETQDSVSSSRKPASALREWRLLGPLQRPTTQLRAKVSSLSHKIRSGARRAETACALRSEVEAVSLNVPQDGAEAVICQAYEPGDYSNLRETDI
Procedure: Additionally, binding affinity against the pharmacologically defined α-1A adrenoreceptor (rat submaxillary gland) was measured.
The cDNA clones encoding the α-1 adrenoreceptors (α-1a, α-1b, and α-1d) were obtained from TULCO (Triangle Universities Licensing Consortium, Research Triangle Park, N.C.) and inserted into the eukaryotic expression vector SnaB30. In this vector, expression of the adrenoreceptor gene is under the transcriptional control of an SV40 early promoter. Positive drug selection is provided by a neomycin-resistance gene. Mouse fibroblast cells (LTK) were transfected with the α1 expression plasmids and grown in Dulbecco's modified Eagle's medium (DMEM) containing 10% fetal calf serum and […]. Stable G418-resistant parental lines were generated, with successful expression of adrenoreceptor protein monitored using radioligand binding techniques. Stable single cell clones derived from the parental lines were screened in adrenoreceptor binding assays to identify clones having high adrenoreceptor density. Roller bottle cultures of the cloned lines were used to provide cell membranes for subsequent adrenoreceptor binding characterization studies. A cell line containing the SnaB30 vector expressing the human erythropoietin gene served as a negative control.
For adrenoreceptor binding assays, large scale membrane preparations were utilized in which 6 million cells were seeded into small (450 cm^2) Corning tissue culture roller bottles. 200 mL of DMEM containing 10% fetal calf serum and 300 μM G418 were added to each roller bottle. A 95% air/5% CO2 gas mixture (sterile) was injected into each roller bottle prior to sealing. The bottles were then incubated at 37° C. on a roller rack for 5 days. Cells were re-fed with fresh medium after 3 days in culture.
On the fifth day of culture, growth medium was removed from cells grown in roller bottles, and the cells were washed twice with PBS (Sigma, 120 mM NaCl, 2.7 mM KCl, 10 mM Na2 HPO4 --NaH2 PO4, pH=7.4). Cells were detached from the roller bottles by incubating for 15 minutes at 37° C. in a Tris-EDTA solution (10 mM Tris, 100 mM NaCl, 1 mM EDTA, pH=7.4). The cell suspension from each roller bottle was decanted into tared centrifuge tubes and kept on ice. An aliquot of each cell suspension was generally taken for cell counting. Cells were centrifuged at 3000×G for 5 min at 2°-4° C., washed with PBS and recentrifuged. The supernatant was decanted and the pellet weighed to determine the wet weight of cells. Cells were washed a final time in 40 vol 5 mM Tris-HCl, 5 mM EDTA, pH=7.7, and centrifuged at 40,000×G for 10 minutes. Cells were homogenized in 10 mL of 50 mM Tris-HCl, 5 mM EDTA (pH=7.4) and diluted to 40 mL/tube. Homogenates were centrifuged at 40,000×G for 10 minutes. The supernatant was decanted and the pellets rehomogenized in 50 mM Tris-HCl (pH=7.4) and centrifuged as before. The supernatant was decanted and the homogenate resuspended in 6.25 volumes (per gram wet weight) of 50 mM Tris-HCl and aliquots of the pooled homogenates frozen in liquid N2 and stored at -70° C. until the time of assay. Rat submaxillary glands were used for α-1A adrenoreceptors and were prepared essentially as described (Michel, A. D., Loury, D. N. and Whiting, R. L., Brit. J. Pharmacol. 98: 83-889 (1989)).
Receptor binding assays for α-1 adrenoreceptors were performed essentially as described by Greengrass and Bremner (Eur. J. Pharmacol. 55: 323-326 (1979)). […] Radioactivity was determined by standard liquid scintillation techniques. Data were analyzed as previously described (Hancock, A. A., Kyncl, J. J., Martin, Y. C. and DeBernardis, J. F., J Receptor Res. 8: 23-46 (1988)).

[2] = target: T2, α-1A adrenoreceptor (canine prostate smooth muscle) (Canis lupus, UniProt A0A8I3NK63); assay: Functional antagonism: inhibition of phenylephrine-induced contraction of canine prostate strips; type: cell-based; details: Schild plot
T2 construct: antagonism of phenylephrine-induced contraction (pA2, Schild)
T2 sequence (A0A8I3NK63 1-466): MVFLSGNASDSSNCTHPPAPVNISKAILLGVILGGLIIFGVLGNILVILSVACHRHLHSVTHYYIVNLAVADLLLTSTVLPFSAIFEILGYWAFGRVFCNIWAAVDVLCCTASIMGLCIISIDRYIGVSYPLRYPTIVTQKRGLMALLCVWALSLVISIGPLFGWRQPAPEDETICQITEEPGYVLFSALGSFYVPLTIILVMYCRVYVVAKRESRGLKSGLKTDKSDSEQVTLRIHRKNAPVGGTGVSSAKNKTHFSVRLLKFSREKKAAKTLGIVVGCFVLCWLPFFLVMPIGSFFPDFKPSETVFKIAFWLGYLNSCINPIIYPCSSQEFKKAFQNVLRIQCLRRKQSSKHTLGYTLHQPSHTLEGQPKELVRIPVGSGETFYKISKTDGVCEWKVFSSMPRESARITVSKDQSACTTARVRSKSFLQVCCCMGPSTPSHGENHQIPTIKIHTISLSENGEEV
Description: Canine prostate strips were used in vitro as previously described (Hieble, J. P., Boyce, Caine, M., Fed Proc., 45: 2609-2614 (1986)), to determine antagonist potencies phenylephrine-induced contractions.
Functional assays indicative of pharmacologically defined α-1 adrenoreceptors were used to further characterize compounds. Inhibition of phenylephrine (PE)-induced contraction of canine prostate smooth muscle can be correlated with α-1A adrenoreceptor activation. […] For each of these models, agonist dose response curves were repeated against increasing concentrations of test agent to derive a Schild plot [log ([…]) against log (molarity of test agent)] to determine the pA2.
Canine prostate strips were used in vitro as previously described (Hieble, J. P., Boyce, A. J. and Caine, M., Fed. Proc., 45: 2609-2614 (1986)), to determine antagonist potencies against phenylephrine-induced contractions.

[3] = target: T3, α-1 Adrenoceptors (Rat Aorta) (Rattus norvegicus, UniProt P23944); assay: Functional antagonism at α-1 adrenoceptors, rat aorta; type: cell-based
T3 construct: Rat Aorta; from tissue; host or cells: rat aorta
T3 sequence (P23944 1-561): T1 sequence (P23944 1-561)
Method in brief: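 Phenylephrine dose-response curves for contraction were repeated against increasing test-agent concentrations. pA2 was derived by Schild plot [[…] vs log molarity of test agent].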

[4] = cloned rat α-1d in LTK cells, [3H]prazosin 0.2 nM, read-out: Radioligand Binding (Ki; nM) 1d (Rat)

Ki [1, 4] [nM]	In Vitro Characterization (pA2) Rat Aorta [3]	SMILES	Ki [1] [nM]	In Vitro Characterization (pA2) Dog Prostate [2]
0.495	–	COc1cc2[nH]c(=O)n(CCN3CC[C@H]4c5c(OC)cccc5OC[C@@H]4C3)c(=O)c2cc1OC (relative stereo) [Example 91, 3-[2-((±)-trans-10-Methoxy-1,3,4,4a,5,10b-hexahydro-2H-[1]-benzopyrano[3,4-c]pyrido-3-yl)ethyl]-6,7-dimethoxy-quinazoline-2,4(1H,3H)-dione hydrochloride]	–	–
–	–	COc1cccc2c1[C@@H]1CCN(CCCCn3c(=O)[nH]c4c(sc5ccccc54)c3=O)C[C@H]1CO2 (relative stereo) [Example 87, 3-[4-((±)-trans-10-Methoxy-1,3,4,4a,5,10b-hexahydro-2H-[1]-benzopyrano[3,4-c]pyrido-3-yl)butyl]-[1]-benzthieno[3,2-d]pyrimidine-2,4(1H,3H)-dione hydrochloride]	0.704	–
–	–	COc1cccc2c1[C@@H]1CCN(CCCCn3c(=O)[nH]c4c(sc5cccnc54)c3=O)C[C@H]1CO2 (relative stereo) [Example 88, 3-[4-((±)-trans-10-Methoxy-1,3,4,4a,5,10b-hexahydro-2H-[1]-benzopyrano[3,4-c]pyrido-3-yl)butyl]-pyrido[2',3':4,5]thieno[3,2-d]pyrimidine-2,4(1H,3H)-dione hydrochloride]	0.259	8.09
0.701	9.15	COc1ccc2c(n1)sc1c(=O)n(CCCCN3C[C@@H]4COc5cccc(OC)c5[C@@H]4C3)c(=O)[nH]c12 [Example 33, hydrochloride]	–	–
